The values that follow come from US6492373B2, “6-fluoro-1,4-dihydro-7-[4-(2-hydroxyiminoethyl)-1-piperazinyl]-4-oxoquinoline-3-carboxylic acid derivatives, their preparation and pharmaceutical compositions” (Pharmaceutical Industry Technology and Development Center, priority 2000, dated 2002).

One may read the GI50 as the concentration giving 50% growth inhibition.

What all share (assay type): cell-based
Assay [1] deals with EKVX (non-small cell lung cancer). Briefly: NCI in vitro tumor cell growth inhibition (GI50). Particulars: Homo sapiens.
In the next assay the test system is SK-OV-4 (ovarian cancer). Description: NCI in vitro tumor cell growth inhibition (GI50). Particulars: Homo sapiens.
The subject of assay [2] is NCI-H226 (non-small cell lung cancer). Briefly: NCI in vitro tumor cell growth inhibition (GI50). Particulars: Homo sapiens.
In the next assay the test system is RPMI-8226 (leukemia). Description: NCI in vitro tumor cell growth inhibition (GI50). The conditions noted are these: Homo sapiens.
A further assay concerns SK-OV-5 (ovarian cancer). Description: NCI in vitro tumor cell growth inhibition (GI50). The conditions noted are these: Homo sapiens.
The next assay deals with UO-31 (renal cancer). Description: NCI in vitro tumor cell growth inhibition (GI50). Particulars: Homo sapiens.
The next assay relates to SK-OV-3 (ovarian cancer). Briefly: NCI in vitro tumor cell growth inhibition (GI50). Particulars: Homo sapiens.
Assay [3] concerns 60 human tumor cell lines. Description: NCI in vitro tumor cell growth inhibition, whole panel. The conditions noted are these: for GI50: Homo sapiens, Mean values over 60 cell lines tested; for Range: Ratio of GI50 value for the least sensitive cell to the most sensitive cell.
A further assay deals with CAKI-1 (renal cancer). Briefly: NCI in vitro tumor cell growth inhibition (GI50). The conditions noted are these: Homo sapiens.
Assay [4] deals with HOP-62 (non-small cell lung cancer). Briefly: NCI in vitro tumor cell growth inhibition (GI50). The conditions noted are these: Homo sapiens.
A further assay deals with CCRF-CEM (leukemia). Description: NCI in vitro tumor cell growth inhibition (GI50). The conditions noted are these: Homo sapiens.
A further assay has as its system RXF-393 (renal cancer). Description: NCI in vitro tumor cell growth inhibition (GI50). The conditions noted are these: Homo sapiens.
Another assay concerns HL-60 (TB) (leukemia). Briefly: NCI in vitro tumor cell growth inhibition (GI50). The conditions noted are these: Homo sapiens.

Turning to `CCn1cc(C(=O)O)c(=O)c2cc(F)c(N3CCN(CC(=NO)c4ccc(F)cc4)CC3)cc21` [Exp. 9, 1-Ethyl-6-fluoro-7-{4-[2-(4-fluorophenyl)-2-hydroxyimino-ethyl]-1-piperazinyl}-4-oxo-1,4-dihydro-3-quinolinecarboxylic acid], the GI50 in assay [1] is 42.6 µM; with SK-OV-4 (ovarian cancer), 39.4 µM; in [2] it was 53.5 µM; in the assay with RPMI-8226 (leukemia) it was 22.9 µM; with SK-OV-5 (ovarian cancer), over 100 µM; in the assay with UO-31 (renal cancer), 0.13 µM. Further, the GI50 amounted to 32 µM in the assay with SK-OV-3 (ovarian cancer); 21.5 µM in assay [3]; 1.89 µM in the assay with CAKI-1 (renal cancer); 42.6 µM in assay [4]; 10.5 µM in the assay on CCRF-CEM (leukemia); 0.17 µM in the assay with RXF-393 (renal cancer). Also, in the assay on HL-60 (TB) (leukemia), the GI50 worked out at 0.98 µM. The Range in assay [3] is reported as 758.
Regarding `CCn1cc(C(=O)O)c(=O)c2cc(F)c(N3CCN(CC(=NO)c4ccc(Cl)cc4)CC3)cc21` [Exp. 10, 1-Ethyl-6-fluoro-7-{4-[2-(4-chlorophenyl)-2-hydroxyimino-ethyl]-1-piperazinyl}-4-oxo-1,4-dihydro-3-quinolinecarboxylic acid], the GI50 in assay [1] came out at 19.2 µM; in the assay on SK-OV-4 (ovarian cancer) it was 32.1 µM; in assay [2], 20.3 µM; in the assay on RPMI-8226 (leukemia), 3.21 µM; with SK-OV-5 (ovarian cancer), 22.8 µM; in the assay with UO-31 (renal cancer), 0.03 µM. Also, the GI50 in the assay on SK-OV-3 (ovarian cancer) was 28.7 µM; in assay [3], 9.31 µM; in the assay with CAKI-1 (renal cancer), 0.4 µM; in assay [4], 28.6 µM; with CCRF-CEM (leukemia), 67.4 µM; in the assay on RXF-393 (renal cancer), 0.72 µM. This molecule displayed a GI50 in the assay with HL-60 (TB) (leukemia) of 1.29 µM. Further, in assay [3], the Range was 2291.
